Reference: patent publication US8143294B2, “2-sulfanyl-substituted imidazole derivatives and their use as cytokine inhibitors” (priority 2007, dated 2012)

These molecules were tested against p38α (Homo sapiens, UniProt Q16539) (assay: P38α enzyme inhibition assay (ATF-2 phosphorylation ELISA)). Conditions: activated p38α, substrate ATF-2, ATP 100 μM, 60 minutes incubation, photometric readout 405 nm; read-out: Kinase assay IC50.
Format: biochemical
Protocol: P38α Enzyme Inhibition Assay:
First the microtiter plates are coated using a dilution of ATF-2, substrate of p38α. Each step is followed by a threefold washing step. As the substrate doesn't cover the whole surface, blocking buffer is used to capture the free binding sites. In the meantime, the test compounds are diluted using the kinase buffer, which contains ATP [100 μM], phosphatase-inhibitors and the activated p38α.
The different dilutions of the test compounds are pipetted on the plate. ATP and the compounds compete for the enzyme's binding site. During an incubation time of 60 minutes ATF-2 is dual phosphorylated at Thr 69/71 by p38α kinase depending on its degree of inhibition. Next the first antibody is added into the wells. This antibody binds specifically at dual phosphorylated ATF-2 (Thr 69/71). Secondary antibody, that is conjugated with alkaline phosphatase, binds at the first one. Finally 4-NPP is given in the wells and after an incubation under cover of darkness it is photometrically analysed (405 nm).

Sequence of p38α (Q16539 whole entry): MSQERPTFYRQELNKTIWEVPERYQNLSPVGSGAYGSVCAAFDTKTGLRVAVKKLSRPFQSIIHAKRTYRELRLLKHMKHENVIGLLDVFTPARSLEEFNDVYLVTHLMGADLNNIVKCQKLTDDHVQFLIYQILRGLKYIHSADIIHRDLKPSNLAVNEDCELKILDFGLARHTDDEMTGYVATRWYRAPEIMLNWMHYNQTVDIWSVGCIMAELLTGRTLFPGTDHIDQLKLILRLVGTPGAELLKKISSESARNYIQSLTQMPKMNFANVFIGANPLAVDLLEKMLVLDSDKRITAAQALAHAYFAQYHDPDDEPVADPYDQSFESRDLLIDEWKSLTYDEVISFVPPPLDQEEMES

Question: With `CC(Nc1cc(-c2[nH]c(SCCO)nc2-c2ccc(F)cc2)ccn1)c1ccccc1` (stereo not drawn) [Example 8x, 2-(4-(4-Fluorophenyl)-5-(2-(1-phenylethylamino)pyridin-4-yl)-1H-imidazol-2-ylthio)ethanol] as the molecule, how does the IC50 read?
Answer: 0.014 µM

Question: `CC(C)CNc1cc(-c2[nH]c(SCC(O)CO)nc2-c2ccc(F)cc2)ccn1` (stereo not drawn) [Example 8c, 3-(4-(4-Fluorophenyl)-5-(2-(isobutylamino)pyridin-4-yl)-1H-imidazol-2-ylthio)propane-1,2-diol] was tested. Which IC50 did it give?
Answer: 0.013 µM

Question: For `CC(C)C(C)Nc1cc(-c2[nH]c(SCCO)nc2-c2ccc(F)cc2)ccn1` (stereo not drawn) [Example 8k, 2-(4-(4-Fluorophenyl)-5-(2-(3-methylbutan-2-ylamino)pyridin-4-yl)-1H-imidazol-2-ylthio)ethanol], which IC50 is on record?
Answer: 0.01 µM

Question: Which IC50 does the source give for `CC(C)Nc1cc(-c2[nH]c(SC[C@H](O)CO)nc2-c2ccc(F)cc2)ccn1` [Example 8n, (2R)-3-(4-(4-Fluorophenyl)-5-(2-(isopropylamino)pyridin-4-yl)-1H-imidazol-2-ylthio)propane-1,2-diol] here?
Answer: 0.0055 µM

Question: For `CC(C)C(C)Nc1cc(-c2[nH]c(SCC(O)CO)nc2-c2ccc(F)cc2)ccn1` (stereo not drawn) [Example 8f, 3-(4-(4-Fluorophenyl)-5-(2-(3-methylbutan-2-ylamino)pyridin-4-yl)-1H-imidazol-2-ylthio)propane-1,2-diol], which IC50 is on record?
Answer: 0.014 µM

Question: For `CCC(C)Nc1cc(-c2[nH]c(SCC(O)CO)nc2-c2ccc(F)cc2)ccn1` (stereo not drawn) [Example 8g, 3-(4-(4-Fluorophenyl)-5-(2-(sec-butylamino)pyridin-4-yl)-1H-imidazol-2-ylthio)propane-1,2-diol], which IC50 is on record?
Answer: 0.0051 µM

Question: For `CC(Nc1cc(-c2[nH]c(SCC(=O)O)nc2-c2ccc(F)cc2)ccn1)c1ccccc1` (stereo not drawn) [Example 8q, 2-(4-(4-fluorophenyl)-5-(2-(1-phenylethylamino)pyridin-4-yl)-1H-imidazol-2-ylthio)acetic acid], which IC50 is on record?
Answer: 0.036 µM

Question: How did the IC50 turn out when `CC(C)Nc1cc(-c2[nH]c(SCCO)nc2-c2ccc(F)cc2)ccn1` [Example 8u, 2-(4-(4-Fluorophenyl)-5-(2-(isopropylamino)pyridin-4-yl)-1H-imidazol-2-ylthio)ethanol] was run?
Answer: 0.003 µM

Question: How did the IC50 turn out when `CC(C)C(C)Nc1cc(-c2[nH]c(SC[C@H](O)CO)nc2-c2ccc(F)cc2)ccn1` (stereo partly drawn) [Example 8l, (2R)-3-(4-(4-Fluorophenyl)-5-(2-(3-methylbutan-2-ylamino)pyridin-4-yl)-1H-imidazol-2-ylthio)propane-1,2-diol] was run?
Answer: 0.017 µM

Question: For `OCC(O)CSc1nc(-c2ccc(F)cc2)c(-c2ccnc(NCc3ccccc3)c2)[nH]1` (stereo not drawn) [Example 8b, 3-(5-(2-(1-Benzylamino)pyridin-4-yl)-4-(4-fluorophenyl)-1H-imidazol-2-ylthio)propane-1,2-diol], which IC50 is on record?
Answer: 0.087 µM

Question: How did the IC50 turn out when `COC(=O)CSc1nc(-c2ccc(F)cc2)c(-c2ccnc(NC(C)c3ccccc3)c2)[nH]1` (stereo not drawn) [Example 8p, methyl 2-(4-(4-fluorophenyl)-5-(2-(1-phenylethylamino)pyridin-4-yl)-1H-imidazol-2-ylthio)acetate] was run?
Answer: 0.035 µM

Question: With `OCCSc1nc(-c2ccc(F)cc2)c(-c2ccnc(NC3CCOCC3)c2)[nH]1` [Example 8v, 2-(4-(4-Fluorophenyl)-5-(2-(tetrahydro-2H-pyran-4-ylamino)pyridin-4-yl)-1H-imidazol-2-ylthio)ethanol] as the molecule, how does the IC50 read?
Answer: 0.0023 µM

Question: Which IC50 does the source give for `CC(C)Nc1cc(-c2[nH]c(SCC(O)CO)nc2-c2ccc(F)cc2)ccn1` (stereo not drawn) [Example 8h, 3-(4-(4-Fluorophenyl)-5-(2-(isopropylamino)pyridin-4-yl)-1H-imidazol-2-ylthio)propane-1,2-diol] here?
Answer: 0.0036 µM

Question: `CCOP(=O)(CSc1nc(-c2ccc(F)cc2)c(-c2ccnc(NC(C)c3ccccc3)c2)[nH]1)OCC` (stereo not drawn) [Example 8r, Diethyl (4-(4-fluorophenyl)-5-(2-(1-phenylethylamino)pyridin-4-yl)-1H-imidazol-2-ylthio)methylphosphonate] was tested. Which IC50 did it give?
Answer: 0.4 µM

Question: How did the IC50 turn out when `CC(C)C(C)Nc1cc(-c2[nH]c(SC[C@@H](O)CO)nc2-c2ccc(F)cc2)ccn1` (stereo partly drawn) [Example 8m, (2S)-3-(4-(4-Fluorophenyl)-5-(2-(3-methylbutan-2-ylamino)pyridin-4-yl)-1H-imidazol-2-ylthio)propane-1,2-diol] was run?
Answer: 0.0095 µM

Question: How did the IC50 turn out when `COC(=O)CSc1nc(-c2ccc(F)cc2)c(-c2ccnc(NC(C)C)c2)[nH]1` [Example 8t, Methyl 2-(4-(4-fluorophenyl)-5-(2-(isopropylamino)pyridin-4-yl)-1H-imidazol-2-ylthio)acetate] was run?
Answer: 0.0036 µM

Question: With `COC(=O)CSc1nc(-c2ccc(F)cc2)c(-c2ccnc(NC(C)C(C)C)c2)[nH]1` (stereo not drawn) [Example 8s, Methyl 2-(4-(4-fluorophenyl)-5-(2-(3-methylbutan-2-ylamino)pyridin-4-yl)-1H-imidazol-2-ylthio)acetate] as the molecule, how does the IC50 read?
Answer: 0.02 µM

Question: For `CNc1cc(-c2[nH]c(SCC(O)CO)nc2-c2ccc(F)cc2)ccn1` (stereo not drawn) [Example 8e, 3-(4-(4-Fluorophenyl)-5-(2-(methylamino)pyridin-4-yl)-1H-imidazol-2-ylthio)propane-1,2-diol], which IC50 is on record?
Answer: 0.1 µM

Question: Which IC50 does the source give for `CC(C)Nc1cc(-c2[nH]c(SC[C@@H](O)CO)nc2-c2ccc(F)cc2)ccn1` [Example 8o, (2S)-3-(4-(4-Fluorophenyl)-5-(2-(isopropylamino)pyridin-4-yl)-1H-imidazol-2-ylthio)propane-1,2-diol] here?
Answer: 0.0032 µM

Question: Which IC50 does the source give for `OCCSc1nc(-c2ccc(F)cc2)c(-c2ccnc(N[C@H]3CC[C@H](O)CC3)c2)[nH]1` [Example 8w, (1R,4R)-4-(4-(4-(4-Fluorophenyl)-2-(2-hydroxyethylthio)-1H-imidazol-5-yl)pyridin-2-ylamino)cyclohexanol] here?
Answer: 0.002 µM

Question: `OCC(O)CSc1nc(-c2ccc(F)cc2)c(-c2ccnc(NC3CCOCC3)c2)[nH]1` (stereo not drawn) [Example 8i, 3-(4-(4-Fluorophenyl)-5-(2-(tetrahydro-2H-pyran-4-ylamino)pyridin-4-yl)-1H-imidazol-2-ylthio)propane-1,2-diol] was tested. Which IC50 did it give?
Answer: 0.0033 µM

Question: For `CCNc1cc(-c2[nH]c(SCC(O)CO)nc2-c2ccc(F)cc2)ccn1` (stereo not drawn) [Example 8d, 3-(5-(2-(Ethylamino)pyridin-4-yl)-4-(4-fluorophenyl)-1H-imidazol-2-ylthio)propane-1,2-diol], which IC50 is on record?
Answer: 0.026 µM

Question: How did the IC50 turn out when `OCC(O)CSc1nc(-c2ccc(F)cc2)c(-c2ccncc2)[nH]1` (stereo not drawn) [reference compound] was run?
Answer: 3.6 µM

Question: Which IC50 does the source give for `CC(Nc1cc(-c2[nH]c(SCC(O)CO)nc2-c2ccc(F)cc2)ccn1)c1ccccc1` (stereo not drawn) [Example 8a, 3-(4-(4-Fluorophenyl)-5-(2-(1-phenylethylamino)pyridin-4-yl)-1H-imidazol-2-ylthio)propane-1,2-diol] here?
Answer: 0.042 µM
